Entries after “also recorded” stand apart in the source; their conditions may differ.
Tests used:
[1] = tested on: HTB5 cells (bladder cancer cell line); experiment: MTT cell viability assay, HTB5; settings: read-out: IC50 against HTB5 cells; 48 h
Description: (§1) Cells were cultured at a 96-well plate for 24 h (Cayman Chemical, Fort Annapolis, MI) and different compounds were added. […] The solution was removed and dimethyl sulphoxide was added. Thirty minutes later, absorption values were read by a Fully Automated Microplate ELISA Analyser (DeTie, NanJing, China).

[2] = tested on: HTB3 (human bladder cell line); experiment: MTT cell viability assay, HTB3; settings: read-out: IC50 against HTB3 cells, 48 h
Description: as §1

[3] = tested on: HCT-15 (human colon cell line); experiment: MTT cell viability assay, HCT-15; settings: read-out: IC50 against HCT-15 cells, 48 h
Description: as §1

HT1376&shControl cells = experiment: Antiproliferative activity, control cells HT1376&shControl; settings: read-out: IC50 against HT1376&shControl cells
Description: as §1

[4] = tested on: LX-2 (normal human hepatic stellate cell line); experiment: MTT cell viability assay, LX-2; settings: read-out: IC50 against LX-2 normal cell line, 48 h
Description: as §1

[5] = tested on: H3K4me1, H3K4me2, and H3K9me2 in HT1376 cells; experiment: Western blotting of LSD1 substrates; format: cell-based; settings: Figure 4(D)
Description: Cells were seeded in four-well plates (Shanghai Yuanye Biotechnology Co., Ltd, Shanghai, China) and exposed to different compounds at different concentrations. Cells were harvested to obtain protein solution by the RIPA Lysis Buffer (DeTie, NanJing, China). The proteins were separated on sodium dodecyl sulphate–polyacrylamide gel electrophoresis (SDS-PAGE) gels and then transferred to poly(vinylidene fluoride (PVDF) membranes (Shanghai Yuanye Biotechnology Co., Ltd, Shanghai, China). It incubated with the primary antibodies and corresponding HRP conjugated secondary antibodies (Servicebio, Wuhan, China). The […] kit (Servicebio, Wuhan, China) was used to visualise the bands.

[6] = tested on: Bel7402 (human liver cell line); experiment: MTT cell viability assay, Bel7402; settings: read-out: IC50 against Bel7402 cells, 48 h
Description: as §1

[7] = tested on: HT1376 cells (bladder cancer cell line); experiment: MTT cell viability assay, HT1376; settings: read-out: IC50 against HT1376 cells; 48 h
Description: as §1

[8] = tested on: SGC-7901 (human gastric cell line); experiment: MTT cell viability assay, SGC-7901; settings: read-out: IC50 against SGC-7901 cells, 48 h
Description: as §1

[9] = tested on: HPAEpiC (normal human alveolar epithelial cell line); experiment: MTT cell viability assay, HPAEpiC; settings: read-out: IC50 against HPAEpiC normal cell line, 48 h
Description: as §1

HTB3&shControl cells = experiment: Antiproliferative activity, control cells HTB3&shControl; settings: read-out: IC50 against HTB3&shControl cells
Description: as §1

MAO-A = biological target: T1, MAO-A (Homo sapiens, UniProt P21397); experiment: MAO-A/B biochemical kit, MAO-A
T1 construct: purchased Promega
T1 sequence (P21397 1-527): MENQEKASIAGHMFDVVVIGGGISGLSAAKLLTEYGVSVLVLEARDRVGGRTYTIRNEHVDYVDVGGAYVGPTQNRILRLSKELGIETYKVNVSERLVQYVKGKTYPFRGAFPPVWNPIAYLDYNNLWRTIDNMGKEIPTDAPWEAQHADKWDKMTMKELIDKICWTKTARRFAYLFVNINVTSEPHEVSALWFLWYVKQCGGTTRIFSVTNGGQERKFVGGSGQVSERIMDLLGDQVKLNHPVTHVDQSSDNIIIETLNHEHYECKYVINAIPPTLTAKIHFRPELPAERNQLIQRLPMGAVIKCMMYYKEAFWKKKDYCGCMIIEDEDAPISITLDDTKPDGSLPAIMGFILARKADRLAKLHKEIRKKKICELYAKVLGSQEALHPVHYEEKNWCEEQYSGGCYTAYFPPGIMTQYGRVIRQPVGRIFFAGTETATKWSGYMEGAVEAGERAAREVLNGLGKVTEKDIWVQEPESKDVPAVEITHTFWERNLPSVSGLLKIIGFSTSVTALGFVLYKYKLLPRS
Description: (§2) LSD1 inhibitor screening assay kit was purchased to evaluate for the enzyme inhibition activity of all synthetic compounds (Cayman Chemical, Fort Annapolis, MI). The MAO-A/B biochemical kit was purchased to explore the inhibitory activity against MAO-A and MAO-B (Promega, Madison, WI). […] The signal of each well was read by a GloMax Explorer (Beijing Yuanpinghao Biotechnology Co., Ltd, Beijing, China).

MAO-B = biological target: T2, MAO-B (Homo sapiens, UniProt P27338); experiment: MAO-A/B biochemical kit, MAO-B
T2 construct: purchased Promega
T2 sequence (P27338 1-520): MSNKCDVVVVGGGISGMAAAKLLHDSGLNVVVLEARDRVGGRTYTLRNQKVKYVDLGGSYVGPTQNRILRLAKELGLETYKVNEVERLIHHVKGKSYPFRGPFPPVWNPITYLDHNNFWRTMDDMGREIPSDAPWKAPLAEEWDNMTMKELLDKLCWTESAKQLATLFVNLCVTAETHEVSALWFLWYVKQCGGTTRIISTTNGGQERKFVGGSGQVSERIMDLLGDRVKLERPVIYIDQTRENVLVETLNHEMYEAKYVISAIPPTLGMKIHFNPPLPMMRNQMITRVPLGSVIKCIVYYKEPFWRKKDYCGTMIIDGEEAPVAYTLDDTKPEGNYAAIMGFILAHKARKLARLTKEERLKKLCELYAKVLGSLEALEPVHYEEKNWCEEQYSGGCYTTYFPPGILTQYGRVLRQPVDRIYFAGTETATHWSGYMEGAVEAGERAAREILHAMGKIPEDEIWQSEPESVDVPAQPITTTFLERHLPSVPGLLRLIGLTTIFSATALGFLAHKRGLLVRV
Description: as §2

HTB3&shLSD1 cells = experiment: Antiproliferative activity, LSD1 knock-down cells HTB3&shLSD1; settings: read-out: IC50 against HTB3&shLSD1 cells
Description: as §1

[10] = tested on: H1299 (human lung cell line); experiment: MTT cell viability assay, H1299; settings: read-out: IC50 against H1299 cells, 48 h
Description: as §1

LSD1 [11] = biological target: T3, LSD1 (Homo sapiens, UniProt O60341); experiment: LSD1 dilution assay; format: biochemical; set-up: purchased Cayman Chemical; settings: diluted 80 times; Figure 3(C)
Description: LSD1 recombinant (Cayman Chemical, […], MI) was incubated with the targeted compound or dimethyl sulphoxide for 60 min. Then, samples were diluted 80 times using a HRP-assay solution containing substrate and coupling reagents. Finally, LSD1 inhibitory activity before and after dilution was examined.

HT1376&shLSD1 cells = experiment: Antiproliferative activity, LSD1 knock-down cells HT1376&shLSD1; settings: read-out: IC50 against HT1376&shLSD1 cells
Description: as §1

LSD1 [12] = biological target: T3, LSD1; experiment: LSD1 inhibitor screening assay kit
Description: as §2

[13] = tested on: Jurkat (human leukaemia cell line); experiment: MTT cell viability assay, Jurkat; settings: read-out: IC50 against Jurkat cells, 48 h
Description: as §1

[14] = tested on: HIEC (normal human intestinal epithelial cell line); experiment: MTT cell viability assay, HIEC; settings: read-out: IC50 against HIEC normal cell line, 48 h
Description: as §1

[15] = tested on: HTB1 cells (bladder cancer cell line); experiment: MTT cell viability assay, HTB1; settings: read-out: IC50 against HTB1 cells; 48 h
Description: as §1

COc1cc(N(CCCCSC(=S)N2CCN(CCO)CC2)S(=O)(=O)c2cccc3cccnc23)cc(OC)c1OC [Compound L8, 4-(N-(3,4,5-trimethoxyphenyl)quinoline-8-sulfonamido)butyl-4–(2-hydroxyethyl)piperazine-1-carbodithioate]
IC50 [1]: 1.87 µM | IC50 [2]: 0.18 µM | IC50 [3]: 2.17 µM | IC50 (HT1376&shControl cells): 0.11 µM | IC50 [4]: > 16 µM | expression levels of H3K4me1, H3K4me2, and H3K9me2 [5]: increasing; also recorded: increased | IC50 [6]: 0.96 µM | IC50 [7]: 0.09 µM | IC50 [8]: 2.67 µM | IC50 [9]: > 16 µM | IC50 (HTB3&shControl cells): 0.23 µM | IC50 (MAO-A): > 120 µM | inhibitory rate MAO-A (MAO-A; at 100 nM): 10.33% | IC50 (MAO-B): > 120 µM | inhibitory rate MAO-B (MAO-B; at 100 nM): 9.33% | IC50 (HTB3&shLSD1 cells): 3.07 µM | IC50 [10]: 0.31 µM | reversibility of LSD1 inhibition (LSD1 [11]): reversible | IC50 (HT1376&shLSD1 cells): 4.36 µM | time dependence of LSD1 inhibition (LSD1 [12]; Figure 3(B)): time-dependent | inhibition against LSD1 (LSD1 [12]; at 25 nM): about 30.33% | inhibition against LSD1 (LSD1 [12]; at 50 nM): ~46.00% | inhibition against LSD1 (LSD1 [12]; at 100 nM): ~68.00% | IC50 (LSD1 [12]; read-out: IC50 (μM) LSD1): 0.06 ± 0.01 µM | IC50 [13]: 0.29 µM | IC50 [14]: > 16 µM | IC50 [15]: 0.93 µM

From publication PMC8973347, “Discovery of novel sulphonamide hybrids that inhibit LSD1 against bladder cancer cells” (Journal of Enzyme Inhibition and Medicinal Chemistry, 2022)
